1 molecule from patent EP1795186B1, “Flupirtin comprising medicament formulation with a controlled release of the active agent” (TEVA GmbH, priority 2005, dated 2007) can be followed below.

This data set in a line: Solubility in hydrochloric acid (gastric juice). In kind it is physicochemical.

For `CCOC(=O)Nc1ccc(NCc2ccc(F)cc2)nc1N` [Flupirtinmaleat], the “Löslichkeit in Salzsäure (Magensaft)” value was “löslich”.
